According to US9126060B2, “Cosmetic use of geranylgeranyl-2-propanol” (SEDERMA, priority 2010, dated 2015):

How the values were obtained:
human fibroblasts = assay: Lipidic peroxidation of fibroblast cellular membranes after UVA stress (MDA, TBARS method); format: cell-based; conditions: for MDA concentration: post UVA stress
Procedure: Principle: human fibroblasts are grown to confluence and then placed or not in contact with the GGP for 72 hours. Following this contact, the GGP is removed and the cells are exposed to oxidative stress (UVA). After a further incubation with or without the GGP, malonaldehyde (MDA) is determined by the TBARS method (Thiobarbituric Acid Reactive Substances) and the value obtained divided by the amount of cellular protein.

human dermal fibroblasts [1] = assay: ATP synthesized by fibroblasts in premature senescence after oxidizing stress (chemiluminescence); format: cell-based; conditions: for ATP: after hydrogen peroxide stress
Procedure: Principle: human dermal fibroblasts at confluence received the GGP for 24 h. After this phase, they were treated with hydrogen peroxide in the presence or absence of the GGP. This stress is intended to induce premature senescence (SIPS) in cells and thus a decrease in ATP synthesis. A few hours after this stress, cells were lysed and the amount of intracellular ATP was assessed by chemiluminescence. This amount of ATP was divided by the amount of intracellular proteins.

human dermal fibroblasts [2] = assay: Senescence associated β-galactosidase activity in fibroblasts after oxidising stress (FDG fluorimetry); format: cell-based; conditions: for β-galactosidase relative activity: after oxidising stress, n = 4
Procedure: Principle: Proliferative human dermal fibroblasts were contacted or not with the GGP for 72 hours in a growth medium. After this first incubation, the cells were subjected for 5 days to an oxidative stress daily, one hour each, in a basic medium, common to all cultures. This stress is known to create a SIPS and to induce a strong increase in β-galactosidase activity in the stressed culture compared to an unstressed culture. Between two stress cells are returned to the growth medium with or without the substance tested. After the fifth stress, β-galactosidase activity is evaluated.
Evaluation of β-galactosidase activity is done after fixing the layers. They are put in contact with a substrate of β-galactosidase nonfluorescent FDG (fluorescein di-β-galactopyranoside), which will release a fluorescent compound upon hydrolysis by β-galactosidase. The emitted fluorescence is quantified in a fluorometer. It will increase with the amount of senescent cells present in culture. The relative activity of β-galactosidase thus found is 2974+/−957 UFA/million cells in a proliferative culture and increases by a factor 5 (p<0.01) in a culture little to not proliferative.

β-galactosidase = assay: Cell-free β-galactosidase inhibition check; format: biochemical; conditions: cell-free system
collagen I = assay: Collagen I synthesis in presenescent fibroblasts (immunofluorescence, image analysis); format: cell-based, human; conditions: for collagen I: senescent cells, 11 days, n = 20 photos
Procedure: Principle: The collagen I synthesis was monitored in pre-senescent human dermal fibroblasts. These cells were cultured for 11 days with the GGP in a growth medium. Following this incubation, the cell layers were fixed and labeled by immunofluorescence, to visualize the network of collagen I and to quantify by image analysis on photographs. In parallel, quantification was performed on proliferating cells.

decorin = assay: Decorin biosynthesis in fibroblast culture (ELISA); format: cell-based, human; conditions: for Decorin: 3 days, n = 5
Procedure: Principle: Normal human fibroblasts were brought to confluence, then contacted or not with GGP at 3, 5 or 7 ppm for 3 days. After this incubation, decorin content was assayed by ELISA in cell homogenates, and then divided by the number of cells.

syndecan 1 = assay: Syndecan 1 synthesis in NHK supernatants (ELISA); format: cell-based, human; conditions: for Syndecan 1: 48 h, n = 3
Procedure: Principle: Human keratinocytes (NHK) are cultivated in a growth medium. After 6 days of incubation, the cells are contacted or not with the tested products (GGP and GGA) at 3, 5 or 7 ppm for 48 h. After incubation, the supernatants are taken and the syndecan 1 content is assayed by ELISA in these supernatants. The cell layers are sonicated and the cell number is evaluated by Hoechst method.

human melanocytes = assay: Melanin content of human melanocytes; format: cell-based; conditions: for Melanin content: 5 days, n = 4
Procedure: (§1) Principle: Human melanocytes are seeded and placed in contact with the GGP for 5 days. After incubation, the residual tyrosinase activity and total melanin content were measured in cell homogenates, and then divided by the number of cells (melanin) or to the protein amount (tyrosinase).

tyrosinase = target: T1, tyrosinase (Homo sapiens, UniProt P14679); assay: Residual tyrosinase activity in human melanocytes; format: cell-based; conditions: for tyrosinase activity: 5 days, n = 4
T1 construct: endogenous in cells; host or cells: human melanocytes
T1 sequence (P14679 19-529): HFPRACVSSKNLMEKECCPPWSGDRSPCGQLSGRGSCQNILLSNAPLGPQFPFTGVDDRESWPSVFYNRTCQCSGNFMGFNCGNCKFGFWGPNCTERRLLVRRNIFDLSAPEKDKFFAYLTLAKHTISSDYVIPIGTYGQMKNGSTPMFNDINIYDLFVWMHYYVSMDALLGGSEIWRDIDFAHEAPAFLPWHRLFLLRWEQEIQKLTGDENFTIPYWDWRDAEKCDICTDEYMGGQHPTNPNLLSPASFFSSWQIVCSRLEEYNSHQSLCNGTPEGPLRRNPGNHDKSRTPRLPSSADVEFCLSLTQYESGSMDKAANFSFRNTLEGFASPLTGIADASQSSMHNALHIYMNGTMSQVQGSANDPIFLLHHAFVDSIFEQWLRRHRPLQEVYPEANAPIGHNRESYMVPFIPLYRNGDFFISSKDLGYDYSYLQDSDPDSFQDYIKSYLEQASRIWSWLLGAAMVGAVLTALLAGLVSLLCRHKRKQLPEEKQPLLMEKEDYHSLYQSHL
Procedure: as §1

nidogen 1 = assay: Nidogen 1 biosynthesis in fibroblast culture (ELISA); format: cell-based, human; conditions: 3 days, n = 5
Procedure: Principle: Normal human fibroblasts were brought to confluence, then placed or not in contact with the GGP, at 1 or 2.5 ppm, for 3 days. After this incubation the nidogen 1 content is determined by ELISA in cell homogenates, and divided by the number of cells.

Q: Which results are given for `CC(C)=CCC/C(C)=C/CC/C(C)=C/CC/C(C)=C/CCC(C)O` (centres unmarked) [GGP, 6,10,14,18-tetramethylnonadeca-5,9,13,17-tetraen-2-ol]?
A: % Change of MDA vs post-stress control (human fibroblasts; 3 ppm): −20%; p < 0.01; MDA concentration (human fibroblasts; 3 ppm): 881 +/− 36 nM/mg protein; % Change of MDA vs post-stress control (human fibroblasts; 5 ppm): −34%; p < 0.01; MDA concentration (human fibroblasts; 5 ppm): 727 +/− 39 nM/mg protein; % Change of MDA vs post-stress control (human fibroblasts; 7 ppm): −53%; p < 0.01; MDA concentration (human fibroblasts; 7 ppm): 515 +/− 11 nM/mg protein; Change (%) of ATP vs after-stress control (human dermal fibroblasts [1]; 5 ppm): +76%; p <; ATP (human dermal fibroblasts [1]; 5 ppm): 311 +/− 80 nM/0.1 μg protein; Change (%) of ATP vs after-stress control (human dermal fibroblasts [1]; 7 ppm): +460%; p <; ATP (human dermal fibroblasts [1]; 7 ppm): 988 +/− 38 nM/0.1 μg protein; Change with regard to control (β-galactosidase) (human dermal fibroblasts [2]; 3 ppm): −35%; p = 0.05; β-galactosidase relative activity (human dermal fibroblasts [2]; 3 ppm): 3702 +/− 992 FAU/10^6 cells; Change with regard to control (β-galactosidase) (human dermal fibroblasts [2]; 5 ppm): −51%; p < 0.02; β-galactosidase relative activity (human dermal fibroblasts [2]; 5 ppm): 2789 +/− 803 FAU/10^6 cells; inhibition of β-galactosidase (β-galactosidase): not an inhibitor of β-galactosidase; Change (%) of collagen I vs senescent cells (collagen I; 3 ppm): +367%; p < 0.01; collagen I (collagen I; 3 ppm): 280 +/− 220 UFA/10^4 cell; Change (%) of collagen I vs senescent cells (collagen I; 5 ppm): +483%; p < 0.01; collagen I (collagen I; 5 ppm): 350 +/− 290 UFA/10^4 cell; Change (%) of decorin vs control (decorin; 3 ppm): +15%; p < 0.03; Decorin (decorin; 3 ppm): 47578 +/− 3587 pg/10^6 cell; Change (%) of decorin vs control (decorin; 5 ppm): +32%; p < 0.01; Decorin (decorin; 5 ppm): 54419 +/− 4697 pg/10^6 cell; Change (%) of decorin vs control (decorin; 7 ppm): +41%; p < 0.01; Decorin (decorin; 7 ppm): 58168 +/− 5912 pg/10^6 cell; Change (%) of syndecan 1 vs control (syndecan 1; 3 ppm): +96%; p < 0.01; Syndecan 1 (syndecan 1; 3 ppm): 135.3 +/− 6.3 pg/10^6 cell; Change (%) of syndecan 1 vs control (syndecan 1; 5 ppm): +190%; p < 0.01; Syndecan 1 (syndecan 1; 5 ppm): 200.6 +/− 15.8 pg/10^6 cell; Syndecan 1 (syndecan 1; 7 ppm): 265.5 +/− 24.3 pg/10^6 cell; Change (%) of melanin content vs control (human melanocytes; 1 ppm): −4%; nsd; Melanin content (human melanocytes; 1 ppm): 46.6 +/− 2.4 μg/mL/10^6 cell; Change (%) of melanin content vs control (human melanocytes; 3 ppm): −36%; p < 0.01; Melanin content (human melanocytes; 3 ppm): 31.3 +/− 1.4 μg/mL/10^6 cell; Change (%) of melanin content vs control (human melanocytes; 5 ppm): −59%; p < 0.01; Melanin content (human melanocytes; 5 ppm): 20.2 +/− 1.3 μg/mL/10^6 cell; Change (%) of tyrosinase activity vs control (tyrosinase; 1 ppm): −11%; p < 0.05; tyrosinase activity (tyrosinase; 1 ppm): 6.196 +/− 0.318 U/μg prot; Change (%) of tyrosinase activity vs control (tyrosinase; 3 ppm): −29%; p < 0.01; tyrosinase activity (tyrosinase; 3 ppm): 4.956 +/− 0.129 U/μg prot; Change (%) of tyrosinase activity vs control (tyrosinase; 5 ppm): −49%; p < 0.01; tyrosinase activity (tyrosinase; 5 ppm): 3.588 +/− 0.248 U/μg prot; Stimulation % of nidogen 1 biosynthesis (nidogen 1; 1 ppm): +28%; Stimulation % of nidogen 1 biosynthesis (nidogen 1; 2.5 ppm): +94%
